In paper PMC10985906, “Anticholinesterase activities of novel isoindolin-1,3-dione-based acetohydrazide derivatives: design, synthesis, biological evaluation, molecular dynamic study” (BMC Chemistry, 2024):
Like-named read-outs stand apart in the source and are kept apart here.

Key:
AChE [1] = biological target: T1, AChE (Homo sapiens, UniProt P22303); assay: biochemical; conditions: mean ± SD; modified Ellman, 37 °C, pH 7.4
BChE [2] = biological target: T2, BChE (Homo sapiens, UniProt P06276); assay: biochemical; conditions: mean ± SD; modified Ellman, 37 °C, pH 7.4
T2 sequence (P06276 29-602): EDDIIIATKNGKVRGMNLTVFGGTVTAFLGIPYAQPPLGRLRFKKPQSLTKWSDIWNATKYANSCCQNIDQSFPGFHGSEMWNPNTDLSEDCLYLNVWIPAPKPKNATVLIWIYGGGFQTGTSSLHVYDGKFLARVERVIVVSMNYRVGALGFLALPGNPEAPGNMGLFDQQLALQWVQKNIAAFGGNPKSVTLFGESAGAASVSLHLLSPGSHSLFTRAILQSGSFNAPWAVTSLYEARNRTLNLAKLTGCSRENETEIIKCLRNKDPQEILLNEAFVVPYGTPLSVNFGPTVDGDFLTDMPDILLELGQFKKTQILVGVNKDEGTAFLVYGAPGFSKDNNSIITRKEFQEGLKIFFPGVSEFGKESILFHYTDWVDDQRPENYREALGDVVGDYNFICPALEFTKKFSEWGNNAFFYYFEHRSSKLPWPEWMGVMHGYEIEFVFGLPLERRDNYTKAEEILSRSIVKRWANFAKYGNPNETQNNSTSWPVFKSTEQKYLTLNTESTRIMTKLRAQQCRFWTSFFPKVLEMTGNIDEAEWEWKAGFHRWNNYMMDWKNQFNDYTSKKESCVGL

BChE [3] = biological target: T2, BChE; assay: Enzyme kinetics against BChE (Lineweaver–Burk); assay type: biochemical
Experimental: (§1) The ChE inhibition reactions were determined by Ellman’s assay at different concentrations of 8a and 8g. […]. The inhibition constant Ki was calculated by the plot of slopes versus the corresponding concentrations of the inhibitors.

AChE [4] = biological target: T1, AChE; assay: Enzyme kinetics against AChE (Lineweaver–Burk); assay type: biochemical
Experimental: as §1

BChE [5] = biological target: T2, BChE; conditions: at 10 µM; previously reported; cited from earlier work
hBACE-1 = conditions: at 50 µM; previously reported; cited from earlier work
Aß-aggregation = conditions: at 10 µM; previously reported; cited from earlier work
BChE [6] = biological target: T2, BChE; conditions: previously reported; cited from earlier work
[7] = secondary plot of Lineweaver–Burk plots

T1 sequence (P22303 32-614): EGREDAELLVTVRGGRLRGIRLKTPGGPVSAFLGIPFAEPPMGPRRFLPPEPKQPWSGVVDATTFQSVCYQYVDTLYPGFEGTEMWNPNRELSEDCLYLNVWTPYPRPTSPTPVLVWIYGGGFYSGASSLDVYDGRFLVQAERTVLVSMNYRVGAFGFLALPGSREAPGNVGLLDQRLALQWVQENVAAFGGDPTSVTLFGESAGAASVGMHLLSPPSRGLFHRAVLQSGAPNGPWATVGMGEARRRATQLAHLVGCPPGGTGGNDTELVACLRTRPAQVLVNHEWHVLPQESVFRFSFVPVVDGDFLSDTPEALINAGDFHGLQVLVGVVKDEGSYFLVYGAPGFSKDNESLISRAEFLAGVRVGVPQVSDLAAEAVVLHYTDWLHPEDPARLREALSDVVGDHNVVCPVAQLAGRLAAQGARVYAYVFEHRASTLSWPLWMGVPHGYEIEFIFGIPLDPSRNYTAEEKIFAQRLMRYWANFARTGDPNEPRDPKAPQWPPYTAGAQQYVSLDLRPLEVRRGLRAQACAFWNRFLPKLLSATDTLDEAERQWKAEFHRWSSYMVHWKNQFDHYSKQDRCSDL

Compound | IC50 (AChE [1]) | IC50 (BChE [2]) | also measured
CCN(CC(=O)NN=Cc1ccc(OC)c(OCCCN2C(=O)c3ccccc3C2=O)c1)Cc1ccccc1 [Compound 8e, 2-(benzyl(ethyl)amino)-Nʹ-(3-(3-(1,3-dioxoisoindolin-2-yl)propoxy)-4-methoxybenzylidene)acetohydrazide] | 210 ± 30 nM | 14700 ± 200 nM | –
CCN(CC(=O)NN=Cc1ccc(OCCCN2C(=O)c3ccccc3C2=O)c(OC)c1)Cc1ccccc1 [Compound 8h, 2-(benzyl(ethyl)amino)-Nʹ-(4-(3-(1,3-dioxoisoindolin-2-yl)propoxy)-3-methoxybenzylidene)acetohydrazide] | 170 ± 60 nM | 13200 ± 1400 nM | –
CCN(CC(=O)NN=Cc1ccccc1OCCCN1C(=O)c2ccccc2C1=O)Cc1ccccc1 [Compound 8b, 2-(benzyl(ethyl)amino)-Nʹ-(2-(3-(1,3-dioxoisoindolin-2-yl)propoxy)benzylidene)acetohydrazide] | 180 ± 10 nM | 26800 ± 800 nM | –
CN(CC(=O)NN=Cc1ccc(OCCCN2C(=O)c3ccccc3C2=O)cc1)Cc1ccccc1 [Compound 8f, 2-(benzyl(methyl)amino)-Nʹ-(4-(3-(1,3-dioxoisoindolin-2-yl)propoxy)benzylidene)acetohydrazide] | 320 ± 20 nM | 15700 ± 1200 nM | –
CCN(CC(=O)NN=Cc1ccc(OCCCN2C(=O)c3ccccc3C2=O)cc1)Cc1ccccc1 [Compound 8g, 2-(benzyl(ethyl)amino)-Nʹ-(4-(3-(1,3-dioxoisoindolin-2-yl)propoxy)benzylidene)acetohydrazide] | 860 ± 20 nM | 5700 ± 200 nM | mode of inhibition against BChE (BChE [3]; Lineweaver–Burk plot): competitive; Ki (BChE [3]; [7]): 3650 nM
CCN(CC(=O)NN=Cc1cccc(OCCCN2C(=O)c3ccccc3C2=O)c1)Cc1ccccc1 [Compound 8d, 2-(benzyl(ethyl)amino)-N'-(3-(3-(1,3-dioxoisoindolin-2-yl)propoxy)benzylidene)acetohydrazide] | 160 ± 30 nM | 11800 ± 500 nM | –
CN(CC(=O)NN=Cc1ccccc1OCCCN1C(=O)c2ccccc2C1=O)Cc1ccccc1 [Compound 8a, 2-(benzyl(methyl)amino)-Nʹ-(2-(3-(1,3-dioxoisoindolin-2-yl)propoxy)benzylidene)acetohydrazide] | 110 ± 50 nM | 30200 ± 2800 nM | mode of inhibition against AChE (AChE [4]; Lineweaver–Burk plot): competitive; Ki (AChE [4]; [7]): 88.6 nM
CCN(CC(=O)NN=Cc1cc([N+](=O)[O-])ccc1OCCCN1C(=O)c2ccccc2C1=O)Cc1ccccc1 [Compound 8c, 2-(benzyl(ethyl)amino)-Nʹ-(2-(3-(1,3-dioxoisoindolin-2-yl)propoxy)-5-nitrobenzylidene)acetohydrazide] | 160 ± 40 nM | 21800 ± 1300 nM | –
2-(benzylamino-2-hydroxyalkyl)isoindoline-1,3-dione | – | – | BChE inhibition (BChE [5]): 14.1% ± 5.8; hBACE-1 inhibition (hBACE-1): 43.7%; Aß-aggregation inhibition (Aß-aggregation): 24.9%
CN(C)C(=O)Oc1cccc([N+](C)(C)C)c1 [neostigmine] | – | – | IC50 (BChE [6]): 84 nM
Oc1ccc(/C=C/c2cc(O)cc(O)c2)cc1 [resveratrol] | – | – | Aß-aggregation inhibition (Aß-aggregation): 78.5% ± 5.2
